Data on one compound can be found in patent US20230310399A1, “COMBINATORIAL THERAPEUTIC SYSTEMS AND METHODS THAT INCLUDE SYSTEMIC, CENTRALLY AND PERIPHERALLY ACTING ANALGESICS” (COGNIFISENSE, INC., priority 2020, published 2023).

The test concerns patient's amount of pain. The experiment in a line: Potential patient responses to combinatorial therapy: amount of pain over time (FIGS. 5A-5C). The note with it: combinatorial therapeutic system with VRNT; potential individual patient responses. The test is classed as in vivo, patients. The text has this: FIGS. 5A-5C illustrate exemplary graphs of potential effects of combinatorial therapeutic systems/methods employing oliceridine and VRNT on a patient's amount of pain over time; and
The synergistic effects of the disclosed combinatorial therapeutic systems/methods can be exemplified in a plurality of responses. For example, FIGS. 5A-5C illustrate a combinatorial therapy using oliceridine (as the systemic, centrally and peripherally acting analgesic) and VRNT (as the artificial sensory experience) with different potential patient responses. As many, if not all, patients may experience the synergistic benefits afforded by the disclosed combinatorial therapeutic systems/methods as an average benefit, the individual-specific responses may be different.

Each structure is given as a SMILES string. Entries after “also recorded” stand apart in the source; their conditions may differ.

Regarding `COc1ccsc1CNCC[C@@]1(c2ccccn2)CCOC2(CCCC2)C1` [oliceridine], the “patient's amount of pain over time” value is “constant or linear decrease in pain over time; also recorded: cyclical decrease and increase in pain levels over time with an overall decreasing pain level; also recorded: stepwise reduction in pain levels”.
